The values below come from US9751875B2, “Quinine compounds, and optical isomers, preparation method and medical use thereof” (BEIJING FSWELCOME TECHNOLOGY DEVELOPMENT CO., LTD., priority 2013, dated 2017).

Where two headings read alike, the source gives them in different places.

For assay [1], the system named is tracheal smooth muscle from guinea pigs (contraction induced by 3 × 10^−6 mol/L of CCh). Description: Antagonism in vitro of contraction of isolated tracheal smooth muscle from guinea pigs induced by carbachol (CCh). The class given is cell-based, guinea pig. An excerpt:
Preparation of the Isolated Tracheal Smooth Muscle Specimen from a Guinea Pig:
After a guinea pig was narcotized with urethane, the trachea between the throat and carina of the guinea pig was taken out rapidly, and placed in the Krebs-Henseleit (K-H) solution (composition (g/L): NaCl 6.92, KCl 0.35, CaCl2 0.28, KH2PO4 0.16, MgSO4.7H2O 0.4568, NaHCO3 2.1, Glucose 2.0) with a mixture gas of 5% CO2 and 95% O2 purged. After loose connective tissues and fats around the trachea were separated, the trachea was cut into trachea pieces having a width of about 3 mm and a length of 20 mm by a surgical scissor, with both ends of the trachea piece ligated with 4˜0 silk suture, and then placed into a thermostatic bath containing 5 ml of K—H solution (pH 7.4) at 37° C., with the mixture gas of 5% CO2 and 95% O2 continuously purged. A muscle tension transducer was connected to the upper end so as to apply 1.0 g of resting tension to the specimen, the change of the tension was recorded, the culture solution was replaced every 20 min, and the test was started after being balanced for 60 min.
Administration method: After the trachea piece was stabilized, 3×10^−6 mol/L of CCh was added into a bath, and after the contractile tension of the trachea piece reached a peak level, the example compounds, ipratropium bromide and tiotropium bromide were added into a Magnus bath by a cumulative dosing regimen with a dosage of 10^−9˜10^−5 mol, respectively, and the diastolic condition of the trachea piece was observed: if no response occurred (below the threshold concentration), a next dosage was continued to be added in sequence; if response occurred, after it reached a diastolic plateau, a next dosage was further added. The above operation was repeated until the contractile curve reached the minimum value. Finally, 10^−6 mol/L of isoprenaline was added so that the maximum relaxation would be reached and the curve was recorded.
Statistical approach: The result was expressed as mean ±standard deviation, and counted by Sigma Stat statistical package. The data was analyzed by using variance analysis, the comparison among means of a plurality of specimen was performed by using Student-Newman-Keuls(SNK) test; statistical significant level α=0.05 (bilateral).
Compounds shown in Table 5 were further prepared according to the present invention, and their IC50 […] of resistance to the contraction of tracheal smooth muscle from guinea pigs induced by a concentration of 3×10^−6 mol/L of CCh was determined.

Assay [2] has the same test system. The assay is described as above. The format is cell-based, guinea pig. The source holds these as a separate data set.
The mark [3] stands for this setting: read-out: IC50 (μM), antagonism in vitro against the contraction of the tracheal smooth muscle induced by CCh, 3 × 10^−6 mol/L of CCh, cumulative dosing.
Where [4] appears, read: Cavia porcellus, read-out: IC50 (μM), antagonism in vitro against the contraction of the tracheal smooth muscle induced by CCh, 3 × 10^−6 mol/L of CCh, cumulative dosing.
Setting [5] is: Cavia porcellus, 3 × 10^−6 mol/L of CCh, cumulative dosing, read-out: IC50 (μM), antagonism in vitro against the contraction of the tracheal smooth muscle induced by CCh.
Setting [6] is: 3 × 10^−6 mol/L of CCh, cumulative dosing, read-out: IC50 (μM), antagonism in vitro against the contraction of the tracheal smooth muscle induced by CCh.
Where [7] appears, read: Cavia porcellus, read-out: Resistance to the contraction of smooth muscle from guinea pigs in vitro, IC50 (μM), 3 × 10^−6 mol/L of CCh, Table 5.
The mark [8] stands for this setting: Cavia porcellus, 3 × 10^−6 mol/L of CCh, Table 5, read-out: Resistance to the contraction of smooth muscle from guinea pigs in vitro, IC50.

Consider `OC(CO[C@H]1C[N+]2(CCCOc3ccccc3)CCC1CC2)(c1ccccc1)C1CCCC1.[Br-]` (stereo partly drawn) [Example 2, (2S,3S)-3-[(2-cyclopentyl-2-hydroxyl-2-phenyl)ethoxyl]-1-(3-phenoxypropyl)-1-azabicyclo[2,2,2]octane bromide], for which the IC50 in assay [1] (setting [3]) was found to be 2.85 µM. In addition, in assay [2], the “Onset time” value amounted to 6.53 min and the “Time for eliminating inhibition effect (min)” value is given as “more than 300 min”.

For `OC(CO[C@@H]1C[N+]2(CCCOc3ccccc3)CCC1CC2)(c1ccccc1)C1CCCC1.[Br-]` (stereo partly drawn) [Example 3, (2S,3R)-3-[(2-cyclopentyl-2-hydroxyl-2-phenyl)ethoxyl]-1-(3-phenoxypropyl)-1-azabicyclo[2,2,2]octane bromide], the IC50 in assay [1] (setting [3]) worked out at 0.852 µM. In assay [2], the “Onset time” value is on record as 6.54 min and the “Time for eliminating inhibition effect (min)” value was “more than 300 min”.

In the case of `OC(CO[C@H]1C[N+]2(CCCOc3ccccc3)CCC1CC2)(c1ccccc1)C1CCCCC1.[Br-]` (stereo partly drawn) [Example 7, (2R,3S)-3-[(2-cyclohexyl-2-hydroxyl-2-phenyl)ethoxyl]-1-(3-phenoxypropyl)-1-azabicyclo[2,2,2]octane bromide], the IC50 in assay [1] (setting [4]) amounted to 0.791 µM. In addition, in assay [2], the “Onset time” value was found to be 6.56 min and the “Time for eliminating inhibition effect (min)” value was “more than 300 min”.

For `O[C@](CO[C@H]1C[N+]2(CCCOc3ccccc3)CCC1CC2)(c1ccccc1)C1CCCCC1.[Br-]` [Example 8, (2S,3S)-3-[(2-cyclohexyl-2-hydroxyl-2-phenyl)ethoxyl]-1-(3-phenoxypropyl)-1-azabicyclo[2,2,2]octane bromide], the IC50 in assay [1] (setting [4]) turned out to be 2.35 µM. Also, in assay [2], the “Onset time” value was found to be 6.72 min and the “Time for eliminating inhibition effect (min)” value was “more than 300 min”.

Take `O[C@](COC1C[N+]2(CCCOc3ccccc3)CCC1CC2)(c1ccccc1)C1CCCCC1.[Br-]` (stereo partly drawn) [Example 9, (2S,3R)-3-[(2-cyclohexyl-2-hydroxyl-2-phenyl)ethoxyl]-1-(3-phenoxypropyl)-1-azabicyclo[2,2,2]octane bromide]: the IC50 in assay [1] (setting [4]) was found to be 0.758 µM. In assay [2], the “Onset time” value is 6.13 min and the “Time for eliminating inhibition effect (min)” value is on record as “more than 300 min”.

Turning to `OC(CO[C@H]1C[N+]2(CCCOc3ccccc3)CCC1CC2)(c1ccccc1)C1CCCCC1` (stereo partly drawn) [Example 11, (2R,3S),(2S,3R) Configuration of 3-[(2-cyclohexyl-2-hydroxyl-2-phenyl)ethoxyl]-1-(3-phenoxypropyl)-1-azabicyclo[2,2,2]octane bromide], the IC50 in assay [1] (setting [5]) was determined as 1.36 µM. Also, in assay [2], the “Onset time” value is 6.77 min and the “Time for eliminating inhibition effect (min)” value is on record as “more than 300 min”.

Regarding `OC(CO[C@H]1C[N+]2(CCCOc3ccccc3)CCC1CC2)(c1ccccc1)C1CCC1` (stereo partly drawn) [Example 13, (2R,3S)-3-[(2-cyclobutyl-2-hydroxyl-2-phenyl)ethoxyl]-1-(3-phenoxypropyl)-1-azabicyclo[2,2,2]octane bromide], the IC50 in assay [1] (setting [5]) came to 0.917 µM. In assay [2], the “Onset time” value was found to be 7.25 min and the “Time for eliminating inhibition effect (min)” value was “more than 300 min”.

In the case of `OC(CO[C@@H]1C[N+]2(CCCOc3ccccc3)CCC1CC2)(c1ccccc1)C1CCC1.[Br-]` (stereo partly drawn) [Example 15, (2S,3R)-3-[(2-cyclobutyl-2-hydroxyl-2-phenyl)ethoxyl]-1-(3-phenoxypropyl)-1-azabicyclo[2,2,2]octane bromide], the IC50 in assay [1] (setting [3]) amounted to 1.52 µM. In addition, in assay [2], the “Onset time” value is on record as 6.29 min and the “Time for eliminating inhibition effect (min)” value is “more than 300 min”.

For the compound `OC(CO[C@H]1C[N+]2(CCCOc3ccccc3)CCC1CC2)(c1ccccc1)C1CCC1` (stereo partly drawn) [Example 17, (2R,3S),(2S,3R)-3-[(2-cyclobutyl-2-hydroxyl-2-phenyl)ethoxyl]-1-(3-phenoxypropyl)-1-azabicyclo[2,2,2]octane bromide], the IC50 in assay [1] (setting [6]) turned out to be 1.57 µM. In addition, in assay [2], the “Onset time” value worked out at 7.05 min and the “Time for eliminating inhibition effect (min)” value was “more than 300 min”.

Consider `OC(CO[C@H]1C[N+]2(CCCOc3ccccc3)CCC1CC2)(c1ccccc1)C1CCC1` (stereo partly drawn) [Example 18, (2R,3R),(2S,3S)-3-[(2-cyclobutyl-2-hydroxyl-2-phenyl)ethoxyl]-1-(3-phenoxypropyl)-1-azabicyclo[2,2,2]octane bromide], for which the IC50 in assay [1] (setting [6]) turned out to be 0.156 µM. Further, in assay [2], the “Onset time” value amounted to 6.92 min and the “Time for eliminating inhibition effect (min)” value is given as “more than 300 min”.

`COc1cccc2cccc(C(O)(COC3C[N+]4(CCCOc5ccccc5)CCC3CC4)C3CCCC3)c12` (stereo not drawn) [Example 34]: the IC50 in assay [1] (setting [7]) is 0.654 µM.

As for `OC(CCOC1C[N+]2(CCCOc3ccccc3)CCC1CC2)(c1ccccc1)C1CCCC1` (stereo not drawn) [Example 35], the IC50 in assay [1] (setting [7]) amounted to 0.102 µM.

Consider `CC(=O)OC(COC1C[N+]2(CCCOc3ccccc3)CCC1CC2)(c1ccccc1)C1CCCC1` (stereo not drawn) [Example 36], for which, in assay [1] (setting [7]), the IC50 was 0.068 µM.

With `OC(COC1C[N+]2(CCCOc3ccccc3)CCC1CC2)(c1cccs1)C1CCCC1` (stereo not drawn) [Example 37], the IC50 in assay [1] (setting [7]) was determined as 0.0783 µM.

For `OC(CCCCCCCOC1C[N+]2(CCCOc3ccccc3)CCC1CC2)(c1ccsc1)C1CCCC1` (stereo not drawn) [Example 38], in assay [1] (setting [7]), the IC50 is 0.0317 µM.

As for `COC1C[N+]2(CCCOc3ccccc3)CCC1C(OCC(O)(c1ccccc1)C1CCCC1)C2` (stereo not drawn) [Example 39], the IC50 in assay [1] (setting [7]) was 0.045 µM.

With `ClC(COC1C[N+]2(CCCOc3ccccc3)CCC1CC2)(c1ccccc1)C1CCCC1` (stereo not drawn) [Example 40], the IC50 in assay [1] (setting [7]) came to 0.805 µM.

With `Cc1ccc(OCCC[N+]23CCC(CC2)C(OCC(O)(c2ccccc2)C2CCCC2)C3)cc1` (stereo not drawn) [Example 41], in assay [1] (setting [7]), the IC50 was 0.0562 µM.

As to `COc1ccc(OCCC[N+]23CCC(CC2)C(OCC(O)(c2ccccc2)C2CCCC2)C3)cc1` (stereo not drawn) [Example 42], in assay [1] (setting [7]), the IC50 came out at 0.078 µM.

For the compound `CC(Oc1ccccc1)[N+]12CCC(CC1)C(OCC(O)(c1ccccc1)C1CCCC1)C2` (stereo not drawn) [Example 43], in assay [1] (setting [7]), the IC50 was 0.0615 µM.

For `CC(C)(Oc1ccccc1)[N+]12CCC(CC1)C(OCC(O)(c1ccccc1)C1CCCC1)C2` (stereo not drawn) [Example 44], in assay [1] (setting [7]), the IC50 is 0.147 µM.

For `OC(COC1C[N+]2(C3(COc4ccccc4)CCCC3)CCC1CC2)(c1ccccc1)C1CCCC1` (stereo not drawn) [Example 45], the IC50 in assay [1] (setting [7]) is 0.512 µM.

On to `OC(COC1C[N+]2(C3(COc4ccccc4)C=CC=C3)CCC1CC2)(c1ccccc1)C1CCCC1` (stereo not drawn) [Example 46], for which, in assay [1] (setting [7]), the IC50 is 1.23 µM.

For `CCCCC(O)(COC1C[N+]2(CCCOc3ccccc3)CCC1CC2)c1ccccc1` (stereo not drawn) [Example 47], in assay [1] (setting [7]), the IC50 is 0.506 µM.

Regarding `OC(COC1C[N+]2(CCCOc3ccccc3)CCC1CC2)(c1ccccc1)C1CCCC1` (stereo not drawn) [Example 48], in assay [1] (read-out: Resistance to the contraction of smooth muscle from guinea pigs in vitro, IC50, 3 × 10^−6 mol/L of CCh, Table 5), the IC50 was determined as 1.18 µM.

`CC1CCCC1C(O)(COC1C[N+]2(CCCOc3ccccc3)CCC1CC2)c1ccccc1` (stereo not drawn) [Example 49]: the IC50 in assay [1] (setting [7]) was determined as 0.045 µM.

Take `CC1=CC=CC1C(O)(COC1C[N+]2(CCCOc3ccccc3)CCC1CC2)c1ccccc1` (stereo not drawn) [Example 50]: the IC50 in assay [1] (setting [7]) came out at 0.413 µM.

On to `COC1C(OCC(O)(c2ccccc2)C2CCCC2)C2CC[N+]1(CCCOc1ccccc1)CC2` (stereo not drawn) [Example 52], for which the IC50 in assay [1] (setting [7]) was found to be 0.513 µM.

On to `OC(COC1C[N+]2(CCCOc3ccccc3)CCC1CC2)(CC1CCCC1)c1ccccc1` (stereo not drawn) [Example 53], for which the IC50 in assay [1] (setting [7]) amounted to 2.17 µM.

As for `OC(COC1C[N+]2(CCCOc3ccccc3)CCC1CC2)(c1ccccc1)C1CCCC1` (stereo not drawn) [Example 54], the IC50 in assay [1] (setting [8]) is 0.0376 µM.

For `OC(COC1C[N+]2(CCCOc3ccccc3)CCC1CC2)(c1ccccc1)C1CCCC1` (stereo not drawn) [Example 55], in assay [1] (setting [8]), the IC50 turned out to be 0.0359 µM.
